From ChEMBL document CHEMBL1150351, “Design, synthesis, and biological evaluation of new-generation taxoids” (J Med Chem, 2008) come the findings set out here.

A short description of test [1]: Cytotoxicity against multidrug resistant Pgp expressing human NCI/ADR cells after 72 hrs by sulforhodamine B test. It is filed as functional, cell-based. The conditions noted are these: NCI/ADR-RES. Background: Sulforhodamine B stains cellular protein and so reports cell mass.
Test [2] concerns MCF7. The test can be described thus: Cytotoxicity against Pgp deficient human MCF7 cells after 72 hrs by sulforhodamine B test. The format is functional, cell-based. Conditions: MCF7, 72 h.
Test [3] in a line: Cytotoxicity against Pgp deficient human LCC6 cells after 72 hrs by sulforhodamine B test. It is filed as functional, cell-based. The conditions noted are these: C6, 72 h.
The test system of test [4] is MCF7. The test can be described thus: Resistance index, Ratio of IC50 for multidrug resistant Pgp expressing human NCI/ADR cells to IC50 for Pgp deficient human MCF7 cells. It is filed as functional. On the set-up: reference not given here.
Test [5] is described as follows: Cytotoxicity against multidrug resistant Pgp expressing human LCC6 cells after 72 hrs by sulforhodamine B test. It is filed as functional, cell-based. The conditions noted are these: LCC-6, 72 h.
Test [6] deals with C6. The experiment in a line: Resistance index, Ratio of IC50 for multidrug resistant Pgp expressing human LCC6 cells to IC50 for Pgp deficient human LCC6 cells. The format is functional. Details: reference not given here.

In the case of `CCC(=O)O[C@H]1C(=O)[C@@]2(C)[C@H]([C@H](OC(=O)c3cccc(OC)c3)[C@]3(O)C[C@H](OC(=O)[C@H](O)[C@@H](NC(=O)OC(C)(C)C)[C@H]4CC4(C)C)C(C)=C1C3(C)C)[C@]1(OC(C)=O)CO[C@@H]1C[C@@H]2O`, the IC50 (in general, the point on the concentration scale where inhibition reaches its midpoint) came to 1.5 nM in test [1], 0.6 nM in test [2] and 0.48 nM in test [3].
Turning to `CCC(=O)O[C@H]1C(=O)[C@@]2(C)[C@H]([C@H](OC(=O)c3ccccc3)[C@]3(O)C[C@H](OC(=O)[C@H](O)[C@H](CC(C)C)NC(=O)C4CCCCC4)C(C)=C1C3(C)C)[C@]1(OC(C)=O)CO[C@@H]1C[C@@H]2O`, the “Ratio IC50” value in test [4] is 13; in test [6] it was 5.5. The IC50 was 32 nM in test [5], 19 nM in test [1], 1.5 nM in test [2] and 5.8 nM in test [3].
Take `CC(=O)O[C@H]1C(=O)[C@@]2(C)[C@H]([C@H](OC(=O)c3cccc(C)c3)[C@]3(O)C[C@H](OC(=O)[C@H](O)[C@H](C=C(C)C)NC(=O)OC(C)(C)C)C(C)=C1C3(C)C)[C@]1(OC(C)=O)CO[C@@H]1C[C@@H]2O`: the IC50 was determined as 5 nM in test [1], 0.8 nM in test [2] and 1.5 nM in test [3].
`CCC(=O)O[C@H]1C(=O)[C@@]2(C)[C@H]([C@H](OC(=O)c3ccccc3)[C@]3(O)C[C@H](OC(=O)[C@H](O)[C@H](C=C(C)C)NC(=O)OC(C)(C)C)C(C)=C1C3(C)C)[C@]1(OC(C)=O)CO[C@@H]1C[C@@H]2O`: in test [4], the “Ratio IC50” value amounted to 22. The same molecule returned an IC50 in test [1] of 4 nM.
Turning to `CCC(=O)O[C@H]1C(=O)[C@@]2(C)[C@H]([C@H](OC(=O)c3cccc(OC)c3)[C@]3(O)C[C@H](OC(=O)[C@H](O)[C@H](C=C(C)C)NC(=O)OC4CCCCC4)C(C)=C1C3(C)C)[C@]1(OC(C)=O)CO[C@@H]1C[C@@H]2O`, the “Ratio IC50” value in test [4] amounted to 9.7; in test [6] it was 12. Further, the IC50 in test [5] is 14.8 nM; in test [1], 14 nM; in test [2], 1.44 nM; in test [3], 1.23 nM.
With `COc1cccc(C(=O)O[C@H]2[C@@H]3[C@]4(OC(C)=O)CO[C@@H]4C[C@H](O)[C@@]3(C)C(=O)[C@H](OC(C)=O)C3=C(C)[C@@H](OC(=O)[C@H](O)[C@H](C=C(C)C)NC(=O)OC(C)(C)C)C[C@]2(O)C3(C)C)c1`, the IC50 turned out to be 2.3 nM in test [1], 0.8 nM in test [2] and 0.6 nM in test [3].
As for `CCC(=O)O[C@H]1C(=O)[C@@]2(C)[C@H]([C@H](OC(=O)c3cccc(N=[N+]=[N-])c3)[C@]3(O)C[C@H](OC(=O)[C@H](O)[C@H](CC(C)C)NC(=O)OC(C)(C)C)C(C)=C1C3(C)C)[C@]1(OC(C)=O)CO[C@@H]1C[C@@H]2O`, the values for the IC50 in test [1], in test [2] and in test [3] were 2.1 nM, 1 nM and 1.1 nM, respectively.
On to `CCC(=O)O[C@H]1C(=O)[C@@]2(C)[C@H]([C@H](OC(=O)c3cccc(OC)c3)[C@]3(O)C[C@H](OC(=O)[C@H](O)[C@H](C=C(C)C)NC(=O)C4CC4)C(C)=C1C3(C)C)[C@]1(OC(C)=O)CO[C@@H]1C[C@@H]2O`, for which the “Ratio IC50” value in test [4] is reported as 15.6; in test [6], 16. Further, the IC50 was 17.2 nM in test [5], 7.8 nM in test [1], 0.5 nM in test [2] and 1.1 nM in test [3].
With `CCC(=O)O[C@H]1C(=O)[C@@]2(C)[C@H]([C@H](OC(=O)c3cccc(OC)c3)[C@]3(O)C[C@H](OC(=O)[C@H](O)[C@H](C=C(C)C)NC(=O)C4CCCC4)C(C)=C1C3(C)C)[C@]1(OC(C)=O)CO[C@@H]1C[C@@H]2O`, the entries for the “Ratio IC50” value in test [4] and in test [6] were 32 and 10, respectively. For the same molecule, the IC50 was found to be 11 nM in test [5], 9.5 nM in test [1], 0.3 nM in test [2] and 1.1 nM in test [3].
Take `CCC(=O)O[C@H]1C(=O)[C@@]2(C)[C@H]([C@H](OC(=O)c3cccc(OC)c3)[C@]3(O)C[C@H](OC(=O)[C@H](O)[C@H](CC(C)C)NC(=O)C4CCCCC4)C(C)=C1C3(C)C)[C@]1(OC(C)=O)CO[C@@H]1C[C@@H]2O`: the “Ratio IC50” value in test [4] amounted to 9.3; in test [6] it was 12. The IC50 is 12 nM in test [5], 6.5 nM in test [1], 0.7 nM in test [2] and 1 nM in test [3].
As for `C=CCC[C@H](NC(=O)OC(C)(C)C)[C@@H](O)C(=O)O[C@H]1C[C@@]2(O)[C@@H](OC(=O)c3cccc(OC)c3)[C@@H]3[C@]4(OC(C)=O)CO[C@@H]4C[C@H](O)[C@@]3(C)C(=O)[C@H](OC(=O)CC)C(=C1C)C2(C)C`, the IC50 was 7.7 nM in test [1], 2 nM in test [2] and 0.9 nM in test [3].
Turning to `C=CC[C@H](NC(=O)OC(C)(C)C)[C@@H](O)C(=O)O[C@H]1C[C@@]2(O)[C@@H](OC(=O)c3cccc(OC)c3)[C@@H]3[C@]4(OC(C)=O)CO[C@@H]4C[C@H](O)[C@@]3(C)C(=O)[C@H](OC(=O)CC)C(=C1C)C2(C)C`, the IC50 in test [1] worked out at 8.7 nM; in test [2], 0.8 nM; in test [3] it was 1.2 nM.
As to `COc1cccc(C(=O)O[C@H]2[C@@H]3[C@]4(OC(C)=O)CO[C@@H]4C[C@H](O)[C@@]3(C)C(=O)[C@H](OC(=O)OCc3ccccc3)C3=C(C)[C@@H](OC(=O)[C@H](O)[C@H](C=C(C)C)NC(=O)OC(C)(C)C)C[C@]2(O)C3(C)C)c1`, the “Ratio IC50” value in test [4] is 7.5; in test [6], 1.5. Moreover, the IC50 in test [5] was found to be 1.8 nM; in test [1] it was 1.5 nM; in test [2] it was 0.2 nM; in test [3], 1.2 nM.
For `CCC(=O)O[C@H]1C(=O)[C@@]2(C)[C@H]([C@H](OC(=O)c3ccccc3)[C@]3(O)C[C@H](OC(=O)[C@H](O)[C@H](CC(C)C)NC(=O)OC4CCCC4)C(C)=C1C3(C)C)[C@]1(OC(C)=O)CO[C@@H]1C[C@@H]2O`, the figures for the “Ratio IC50” value in test [4] and in test [6] were 6.8 and 5.4, respectively. The IC50 in test [5] stood at 14 nM; in test [1], 8.8 nM; in test [2], 1.3 nM; in test [3], 2.6 nM.
For `CCC(=O)O[C@H]1C(=O)[C@@]2(C)[C@H]([C@H](OC(=O)c3ccccc3)[C@]3(O)C[C@H](OC(=O)[C@H](O)[C@H](CC(C)C)NC(=O)OC(C)(C)C)C(C)=C1C3(C)C)[C@]1(OC(C)=O)CO[C@@H]1C[C@@H]2O`, the “Ratio IC50” value in test [4] is 15. This molecule also returned an IC50 in test [1] of 5.1 nM.
For `CCC(=O)O[C@H]1C(=O)[C@@]2(C)[C@H]([C@H](OC(=O)c3ccccc3)[C@]3(O)C[C@H](OC(=O)[C@H](O)[C@H](CC(C)C)NC(=O)C4CCCC4)C(C)=C1C3(C)C)[C@]1(OC(C)=O)CO[C@@H]1C[C@@H]2O`, the “Ratio IC50” value was 12 in test [4] and 10 in test [6]. In addition, the IC50 in test [5] was 64 nM; in test [1], 29 nM; in test [2] it was 2.3 nM; in test [3], 6.3 nM.
As for `COc1cccc(C(=O)O[C@H]2[C@@H]3[C@]4(OC(C)=O)CO[C@@H]4C[C@H](O)[C@@]3(C)C(=O)[C@H](OC(=O)c3ccccc3OC)C3=C(C)[C@@H](OC(=O)[C@H](O)[C@H](C=C(C)C)NC(=O)OC(C)(C)C)C[C@]2(O)C3(C)C)c1`, the “Ratio IC50” value came out at 3 in test [4] and 2.3 in test [6]. Besides, the IC50 in test [5] turned out to be 0.9 nM; in test [1], 3.3 nM; in test [2], 1.1 nM; in test [3] it was 0.4 nM.
Turning to `CCC(=O)O[C@H]1C(=O)[C@@]2(C)[C@H]([C@H](OC(=O)c3ccccc3)[C@]3(O)C[C@H](OC(=O)[C@H](O)[C@H](C=C(C)C)NC(=O)OC4CCCCC4)C(C)=C1C3(C)C)[C@]1(OC(C)=O)CO[C@@H]1C[C@@H]2O`, the “Ratio IC50” value was found to be 6.4 in test [4] and 13 in test [6]. In addition, the IC50 in test [5] came out at 15 nM; in test [1] it was 8.9 nM; in test [2], 1.4 nM; in test [3] it was 1.2 nM.
As for `CCC(=O)O[C@H]1C(=O)[C@@]2(C)[C@H]([C@H](OC(=O)c3ccccc3)[C@]3(O)C[C@H](OC(=O)[C@H](O)[C@H](C=C(C)C)NC(=O)C4=CCCC4)C(C)=C1C3(C)C)[C@]1(OC(C)=O)CO[C@@H]1C[C@@H]2O`, the “Ratio IC50” value in test [4] was determined as 15; in test [6] it was 12. For the same molecule, the IC50 in test [5] worked out at 14 nM; in test [1], 6 nM; in test [2], 0.4 nM; in test [3], 1.2 nM.
`COc1ccc(CC(=O)O[C@H]2C(=O)[C@@]3(C)[C@H]([C@H](OC(=O)c4cccc(OC)c4)[C@]4(O)C[C@H](OC(=O)[C@H](O)[C@H](C=C(C)C)NC(=O)OC(C)(C)C)C(C)=C2C4(C)C)[C@]2(OC(C)=O)CO[C@@H]2C[C@@H]3O)cc1`: the entries for the “Ratio IC50” value in test [4] and in test [6] were 3 and 1, respectively. Moreover, the IC50 in test [5] stood at 0.4 nM; in test [1] it was 1.8 nM; in test [2], 0.6 nM; in test [3], 0.4 nM.
Take `CCC(=O)O[C@H]1C(=O)[C@@]2(C)[C@H]([C@H](OC(=O)c3cccc(OC)c3)[C@]3(O)C[C@H](OC(=O)[C@H](O)[C@H](CC(C)C)NC(=O)C4CC4)C(C)=C1C3(C)C)[C@]1(OC(C)=O)CO[C@@H]1C[C@@H]2O`: the results for the “Ratio IC50” value in test [4] and in test [6] were 30 and 22, respectively. The IC50 was 13 nM in test [5], 11.8 nM in test [1], 0.4 nM in test [2] and 0.6 nM in test [3].
With `CCC(=O)O[C@H]1C(=O)[C@@]2(C)[C@H]([C@H](OC(=O)c3cccc(N=[N+]=[N-])c3)[C@]3(O)C[C@H](OC(=O)[C@H](O)[C@H](C=C(C)C)NC(=O)OC(C)(C)C)C(C)=C1C3(C)C)[C@]1(OC(C)=O)CO[C@@H]1C[C@@H]2O`, the figures for the IC50 in test [1], in test [2] and in test [3] were 1.1 nM, 0.9 nM and 0.9 nM, respectively.
